From ChEMBL document CHEMBL1127936, “Mercaptoacyl dipeptides as dual inhibitors of angiotensin-converting enzyme and neutral endopeptidase. Preliminary structure-activity studies” (Bioorg Med Chem Lett, 1994)

Tests used:
[1] = target: T1, Angiotensin-converting enzyme (Oryctolagus cuniculus, UniProt P12822); experiment: In vitro inhibition of rabbit lung Angiotensin I converting enzyme (ACE) using Hippuryl-His-Leu as substrate
T1 sequence (P12822 whole entry): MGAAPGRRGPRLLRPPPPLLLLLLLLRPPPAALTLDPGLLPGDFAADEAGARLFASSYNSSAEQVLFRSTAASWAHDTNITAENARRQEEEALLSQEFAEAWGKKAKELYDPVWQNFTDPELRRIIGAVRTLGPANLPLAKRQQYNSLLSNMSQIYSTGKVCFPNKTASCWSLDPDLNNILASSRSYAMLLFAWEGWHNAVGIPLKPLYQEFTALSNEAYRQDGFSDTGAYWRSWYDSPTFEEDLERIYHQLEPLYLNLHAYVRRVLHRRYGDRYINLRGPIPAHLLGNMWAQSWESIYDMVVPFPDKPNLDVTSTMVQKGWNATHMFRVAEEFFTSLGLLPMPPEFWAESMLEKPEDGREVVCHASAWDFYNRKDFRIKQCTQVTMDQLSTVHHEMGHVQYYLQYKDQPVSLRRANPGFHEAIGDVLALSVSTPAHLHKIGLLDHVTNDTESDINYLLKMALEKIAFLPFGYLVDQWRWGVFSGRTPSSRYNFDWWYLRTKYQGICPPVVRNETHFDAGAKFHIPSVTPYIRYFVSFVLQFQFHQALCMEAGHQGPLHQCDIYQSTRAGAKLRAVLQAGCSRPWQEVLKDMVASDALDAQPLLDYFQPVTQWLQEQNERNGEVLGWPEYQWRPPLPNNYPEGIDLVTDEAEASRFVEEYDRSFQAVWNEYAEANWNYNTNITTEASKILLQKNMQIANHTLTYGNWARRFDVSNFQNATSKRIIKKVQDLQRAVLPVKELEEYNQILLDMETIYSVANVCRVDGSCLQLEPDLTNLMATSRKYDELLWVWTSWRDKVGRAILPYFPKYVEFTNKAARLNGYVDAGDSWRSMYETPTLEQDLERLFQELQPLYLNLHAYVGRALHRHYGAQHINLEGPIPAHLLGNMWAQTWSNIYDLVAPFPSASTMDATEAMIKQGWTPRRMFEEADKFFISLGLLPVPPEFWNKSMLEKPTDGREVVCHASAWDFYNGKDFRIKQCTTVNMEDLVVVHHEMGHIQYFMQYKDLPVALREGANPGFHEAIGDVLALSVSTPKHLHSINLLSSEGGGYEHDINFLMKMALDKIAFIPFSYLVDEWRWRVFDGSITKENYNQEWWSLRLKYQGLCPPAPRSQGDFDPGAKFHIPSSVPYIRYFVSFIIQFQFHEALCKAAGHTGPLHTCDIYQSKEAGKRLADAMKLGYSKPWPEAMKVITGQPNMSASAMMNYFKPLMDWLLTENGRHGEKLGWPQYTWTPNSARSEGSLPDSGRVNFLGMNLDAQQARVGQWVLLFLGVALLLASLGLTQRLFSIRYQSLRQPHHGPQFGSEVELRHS

[2] = target: T2, Neprilysin (Rattus norvegicus, UniProt P07861); experiment: In vitro inhibition of rat kidney neutral endopeptidase (NEP) by fluorometric assay using Dansyl-Gly-Phe-Arg as substrate
T2 sequence (P07861 whole entry): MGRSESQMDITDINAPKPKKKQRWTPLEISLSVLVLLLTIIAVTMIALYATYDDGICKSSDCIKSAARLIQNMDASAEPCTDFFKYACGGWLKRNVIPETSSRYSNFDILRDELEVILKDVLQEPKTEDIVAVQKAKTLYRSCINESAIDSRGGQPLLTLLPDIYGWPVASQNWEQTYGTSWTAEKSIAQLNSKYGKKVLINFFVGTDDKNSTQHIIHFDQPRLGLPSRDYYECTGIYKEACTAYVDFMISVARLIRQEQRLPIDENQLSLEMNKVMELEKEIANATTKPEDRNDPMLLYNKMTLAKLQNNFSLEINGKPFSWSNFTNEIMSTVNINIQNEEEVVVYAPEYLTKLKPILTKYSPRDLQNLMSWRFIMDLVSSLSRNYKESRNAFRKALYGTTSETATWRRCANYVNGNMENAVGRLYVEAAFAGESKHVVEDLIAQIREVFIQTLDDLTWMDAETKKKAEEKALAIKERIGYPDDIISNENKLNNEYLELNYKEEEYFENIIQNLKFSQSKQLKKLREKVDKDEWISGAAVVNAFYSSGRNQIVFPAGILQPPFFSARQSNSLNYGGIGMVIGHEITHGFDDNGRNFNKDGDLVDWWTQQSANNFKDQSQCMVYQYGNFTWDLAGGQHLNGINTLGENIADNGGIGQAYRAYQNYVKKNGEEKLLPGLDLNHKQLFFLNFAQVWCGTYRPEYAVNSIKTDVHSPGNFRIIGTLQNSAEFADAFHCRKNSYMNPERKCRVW

[3] = test system: Rattus norvegicus; experiment: In vivo inhibition of angiotensin I-induced pressor response after iv administration in normotensive rats; assay type: functional
[4] = test system: Rattus norvegicus; experiment: In vivo inhibition of angiotensin- 1 induced pressor response after iv administration in normotensive rats; assay type: functional

SMILES	IC50 [1] [nM]	IC50 [2] [nM]	ED50 [3] [µmol/kg]	ED50 [4] [µmol/kg]
C[C@H](NC(=O)[C@@H](S)Cc1ccccc1)C(=O)N1CCC[C@H]1C(=O)O	30	400	0.06	
C[C@H](NC(=O)[C@@H](CS)Cc1ccc(OCc2ccccc2)cc1)C(=O)N1CCC[C@@H]1C(=O)O	880	40		
C[C@H](NC(=O)[C@@H](CS)Cc1ccccc1)C(=O)N1CCC[C@H]1C(=O)O	4	6.6	0.5	
C[C@H](NC(=O)C(CS)CCc1ccccc1)C(=O)N1CCC[C@@H]1C(=O)O (stereo not given in full)	290	160		
C[C@H](NC(=O)[C@@H](CS)Cc1ccccc1)C(=O)N1C[C@H](C2CCCCC2)C[C@H]1C(=O)O	18	6.6	2.5	
C[C@H](CS)C(=O)N[C@@H](C)C(=O)N1CCC[C@@H]1C(=O)O	1800	140		
C[C@H](NC(=O)[C@@H](CS)Cc1ccccc1)C(=O)N1Cc2ccccc2C[C@H]1C(=O)O	14	3.9	0.57	
C[C@H](NC(=O)[C@H](CS)Cc1ccccc1)C(=O)N1CCC[C@H]1C(=O)O	210	45	8.1	
C[C@H](NC(=O)[C@@H](CS)Cc1ccccc1Cl)C(=O)N1CCC[C@@H]1C(=O)O	25	2.2	2.6	
C[C@H](NC(=O)[C@H](Cc1ccccc1)[C@@H](C)S)C(=O)N1CCC[C@H]1C(=O)O	78	182	> 5	
C[C@H](NC(=O)[C@@H](CS)Cc1ccccc1)C(=O)N1c2ccccc2C[C@H]1C(=O)O	7.8	2.6	0.15	
C[C@H](NC(=O)[C@H](Cc1ccccc1)[C@H](C)S)C(=O)N1CCC[C@H]1C(=O)O	452	32		
C[C@H](NC(=O)[C@@H](CS)Cc1ccccc1)C(=O)N1C[C@@H](Sc2ccccc2)C[C@H]1C(=O)O	8.7	1.6	0.78	
Cc1ccccc1C[C@H](CS)C(=O)N[C@@H](C)C(=O)N1CCC[C@@H]1C(=O)O	69	6.2	4.2	
CC(C)CC(CS)C(=O)N[C@@H](C)C(=O)N1CCC[C@@H]1C(=O)O (stereo not given in full)	490	10		
O=C(N[C@@H](Cc1c[nH]c2ccccc12)C(=O)N1CCC[C@H]1C(=O)O)[C@@H](CS)Cc1ccccc1	10	25	6.4	
CC(C)C[C@H](NC(=O)[C@@H](S)Cc1ccccc1)C(=O)O	1600			
CC(C)C[C@H](NC(=O)[C@@H](CS)Cc1ccccc1)C(=O)O	37			
O=C(O)CCNC(=O)[C@@H](CS)Cc1ccccc1	32000	9.4		
C[C@H](NC(=O)[C@H](S)Cc1ccccc1)C(=O)N1CCC[C@H]1C(=O)O	80	285	0.03	
C[C@H](NC(=O)[C@@H](CS)Cc1ccccc1)C(=O)O	120			15
CCC[C@H](NC(=O)[C@@H](CS)Cc1ccccc1)C(=O)N1CCC[C@H]1C(=O)O	10	2	2.2	
